From article PMC11412489, “Coumarin derivatives as new anti-biofilm agents against Staphylococcus aureus” (PLOS ONE, 2024)
Entries after “also recorded” stand apart in the source; their conditions may differ.

How the values were obtained:
S. aureus = experiment: Antibacterial activity (bacterial growth inhibition); format: cell-based, Staphylococcus aureus; settings: at 100 μg/mL; for inhibition at 100 µg/mL: Staphylococcus aureus, read-out: Antibacterial Activity (% Inhibition ± SEM)
[1] = tested on: biofilm of S. aureus ATCC 6538; experiment: 96-well plate crystal violet assay for biofilm inhibition; format: cell-based, Staphylococcus aureus; settings: at 100 μg/mL, biofilm of S. aureus, 24 hours; for inhibition at 100 µg/mL: Staphylococcus aureus, ATCC6538, read-out: Antibiofilm Activity (% Inhibition ± SEM)
Description: The quantitative determination of biofilm inhibition was carried out by the crystal violet assay on a sterile 96-well plate with slight modifications. The glycerol stock of S. aureus was revived overnight at 37°C at 80 rpm. The overnight culture was then diluted 100 folds in fresh BHI broth, supplemented with 0.25% glucose. The cell density was adjusted to 1×10^7 and 195μL of the cell suspension was added in 96-well plate. […] Following that, the plate was washed with sterile distilled water in order to decant the non-adherent cells, and media. The plate was then dried at 60°C for 1 hour, and 200 μL of 0.1% (w/v) crystal violet was added to stain biofilm for 20 minutes. The plate was washed again, air dried, and dispensed 30% (v/v) acetic acid in each well to dissolve the biofilm. The inhibition of biofilm formation was analyzed by measuring the absorbance at 595 nm using the microplate reader (Multiskan Sky, Thermo Scientific, USA). The percent inhibition of biofilm formation was calculated via the following formula: 100−ƛTreated−ƛBlank/ƛControl−ƛBlank×100 Whereƛ=absorbance

| Structure (SMILES) | Antibacterial Activity (% Inhibition ± SEM) (S. aureus) | Antibiofilm Activity (% Inhibition ± SEM) [1] | inhibition at 100 µg/mL (S. aureus) | inhibition at 100 µg/mL [1] |
| --- | --- | --- | --- | --- |
| Cc1ccc2oc(=O)c(/C=N/NC(N)=S)c(Cl)c2c1 [Compound 1, (E)-2-((4-Chloro-6-methyl-2-oxo-2H-chromen-3-yl)methylene)hydrazinecarbothioamide] | inactive | inactive | – | – |
| Cc1ccc2oc(=O)c(/C=N/Nc3nc(-c4ccc(Cl)cc4Cl)cs3)c(Cl)c2c1 [Compound 5, (E)-4-Chloro-3-((2-(4-(2,4-dichlorophenyl)thiazol-2-yl)hydrazono)methyl)-6-methyl-2H-chromen-2-one] | – | No Inhibition | 36 ± 8.77% | – |
| Cc1ccc2oc(=O)c(/C=N/Nc3nc(-c4ccc(Br)cc4)cs3)c(Cl)c2c1 [Compound 6, (E)-3-((2-(4-(4-Bromophenyl)thiazol-2-yl)hydrazono)methyl)-4-chloro-6-methyl-2H-chromen-2-one] | – | induced biofilm inhibition; also recorded: dual anti-bacterial and anti-biofilm effect | 72 ± 7.22% | 61 ± 4.05% |
| Cc1ccc2oc(=O)c(/C=N/Nc3nc(-c4ccc(Cl)cc4)cs3)c(Cl)c2c1 [Compound 7, (E)-4-Chloro-3-((2-(4-(4-chlorophenyl)thiazol-2-yl)hydrazono)methyl)-6-methyl-2H-chromen-2-one] | – | No Inhibition | 41 ± 11.1% | – |
| COc1ccc(-c2csc(N/N=C/c3c(Cl)c4cc(C)ccc4oc3=O)n2)cc1 [Compound 8, (E)-4-Chloro-3-((2-(4-(4-methoxyphenyl)thiazol-2-yl)hydrazono)methyl)-6-methyl-2H-chromen-2-one] | – | induced biofilm inhibition; also recorded: dual anti-bacterial and anti-biofilm effect | 52 ± 5.08% | 66 ± 5.11% |
| C/C(=N\NC(N)=S)c1cc2ccccc2oc1=O [Compound 9, (E)-2-(1-(2-Oxo-2H-chromen-3-yl)ethylidene)hydrazinecarbothioamide] | – | No Inhibition | 55 ± 5.43% | 22% |
| C/C(=N\Nc1nc(-c2ccc(Cl)cc2)cs1)c1cc2ccccc2oc1=O [Compound 11, (E)-3-(1-(2-(4-(4-Chlorophenyl)thiazol-2-yl)hydrazono)ethyl)-2H-chromen-2-one] | – | induced biofilm inhibition; also recorded: dual anti-bacterial and anti-biofilm effect | 88 ± 4.32% | 70 ± 7.09% |
| C/C(=N\Nc1nc(-c2ccc(Cl)c(Cl)c2)cs1)c1cc2ccccc2oc1=O [Compound 12, (E)-3-(1-(2-(4-(3,4-Dichlorophenyl)thiazol-2-yl)hydrazono)ethyl)-2H-chromen-2-one] | – | No Inhibition | – | – |
| C/C(=N\Nc1nc(-c2cccc([N+](=O)[O-])c2)cs1)c1cc2ccccc2oc1=O [Compound 13, (E)-3-(1-(2-(4-(3-Nitrophenyl)thiazol-2-yl) hydrazono)ethyl)-2H-chromen-2-one] | No Inhibition | No Inhibition | – | – |
| C/C(=N\Nc1nc(-c2ccc(C#N)cc2)cs1)c1cc2ccccc2oc1=O [Compound 14, (E)-4-(2-(2-(1-(2-Oxo-2H-chromen-3-yl)ethylidene)hydrazinyl)thiazol-4-yl)benzonitrile] | – | induced biofilm inhibition; also recorded: dual anti-bacterial and anti-biofilm effect | 61 ± 9.33% | 68 ± 6.63% |
| C/C(=N\Nc1nc(-c2ccccc2O)cs1)c1cc2ccccc2oc1=O [Compound 15, (E)-3-(1-(2-(4-(2-Hydroxyphenyl)thiazol-2-yl)hydrazono)ethyl)-2H-chromen-2-one] | – | induced biofilm inhibition | 73 ± 7.16% | 34 ± 5.11% |
| O=c1oc2ccccc2cc1-c1csc(N/N=C/c2ccccc2)n1 [Compound 16, (E)-3-(2-(2-Benzylidenehydrazinyl)thiazol-4-yl)-2H-chromen-2-one] | – | No inhibition | – | – |
| O=c1oc2ccccc2cc1-c1csc(N/N=C/c2cccc(Cl)c2)n1 [Compound 18, (E)-3-(2-(2-(3-Chlorobenzylidene)hydrazinyl)thiazol-4-yl)-2H-chromen-2-one] | – | – | 32 ± 8.97% | 25 ± 5.26% |
| O=c1oc2ccccc2cc1-c1csc(N/N=C/c2ccc(Cl)cc2)n1 [Compound 19, (E)-3-(2-(2-(4-Chlorobenzylidene)hydrazinyl)thiazol-4-yl)-2H-chromen-2-one] | No Inhibition | – | – | 37 ± 6.98% |
| O=c1oc2ccccc2cc1-c1csc(N/N=C/c2ccc(Cl)cc2Cl)n1 [Compound 20, (E)-3-(2-(2-(2,4-Dichlorobenzylidene)hydrazinyl)thiazol-4-yl)-2H-chromen-2-one] | – | No Inhibition | – | – |
| O=c1oc2ccccc2cc1-c1csc(N/N=C/c2ccccc2[N+](=O)[O-])n1 [Compound 21, (E)-3-(2-(2-(2-Nitrobenzylidene)hydrazinyl)thiazol-4-yl)-2H-chromen-2-one] | – | No Inhibition | – | – |
